Series [1] is described as follows: Stability of CPZ in aqueous solution. The format is physicochemical. Particulars: aqueous solution / cell culture medium.
The subject of series [2] is SH-SY5Y cells. Briefly: Transferrin (Trf) uptake under pharmacological endocytosis inhibitors (control for clathrin-mediated endocytosis). The format is cell-based, human. The following applies: for effect of inhibitor on Trf uptake: 10 µM cytochalasin A, 25 µg/ml cytochalasin D, 10 µM IPA-3 or 25 nM wortmannin, Trf 5 µg/ml 5 min. How it is done:
(§1) Flow cytometry was used to quantify cellular uptake. The samples were washed in serum free medium (1x for experiments including only Aβ and 3x for experiments with Trf) prior to incubation with Aβ peptides and/or other reagents in serum free medium supplemented with 30 mM HEPES and 2% B-27. For experiments including Trf B-27 was omitted, as outlined above. Prior to analysis, the cells were washed 1x (for experiments including only Aβ) or 3x (for experiments including Aβ and dextran 10 kDa or Trf) in serum free medium, detached by trypsin-EDTA for 10 min followed by addition of FBS-supplemented cell culture medium to inhibit further proteolytic degradation. All samples were kept on ice until they were analysed on a Guava EasyCyte 8HT (Millipore, Darmstadt, Germany) that automatically retrieves samples from a 96-well plate. In order to exclude effects due to difference in delay time we used mixed order of analysis, loading only a few samples at a time with the remaining samples kept on ice. The cell counting gate was determined using propidium iodide (0.5 µM, not washed away prior to analysis) and calcein-AM (10 nM, 15 min staining) to distinguish live and dead cells, and for each sample 5,000 cells from within the live gate were counted and analysed. HF488, AlexaFluor488, EGFP and calcein-AM were excited by a 488 nm laser and their fluorescence was detected through a 525/30 nm filter. Propidium iodide and mRFP were excited by the 488 nm laser but detected through a 692/46 nm filter. HF647 and AlexaFluor647 were excited with a 635 nm laser and detected through a 661/19 nm filter. Compensation was performed to adjust for bleed through in experiments including mRFP. Mean cellular uptake was estimated as the average fluorescence intensity of all cells gated within the live region and all individual experiments were performed with three technical replicates (n = 3) unless else is stated. The average fluorescence intensity was baseline corrected by subtracting the signal for unstained cells.
Endocytic mechanisms were also perturbed by treatment of cells with pharmacological inhibitors. Stock solutions of cytochalasin A, cytochalasin D, dynasore, wortmannin and IPA-3 were prepared in DMSO and diluted in serum-free cell culture media supplemented with 30 mM HEPES on the day of the experiment. The final DMSO concentration added to the cells was kept <0.1% and matched for the control. Prior to addition of Aβ peptide the cells were always washed in serum-free medium followed by pre-incubation for 30 min with either of the inhibitors diluted in serum-free medium with the addition of 30 mM HEPES. 1 µM Aβ was thereafter added and the cells were incubated for a total of 1 h, in presence of the respective inhibitors. The cells were centrifuged 1000 * g for 5 min at 4 °C, washed 3x with ice-cold serum-free medium, followed by detachment and immediate flow cytometry analysis, as detailed above. […] However, under exposure conditions where at least 75% if the inhibitor-treated cells were found in the live gate (see Supplementary Fig. S5) we observed reductions in Aβ uptake. Only the live cells were included in the analysis. Trf was used as a positive control for clathrin-mediated endocytosis. Due to the rapid uptake and recycling of internalized Trf we adopted an optimized protocol with sufficiently short Trf incubation times. First, to remove the quantities of membrane-bound Trf that originate from the serum component of the complete culture medium the cells were washed 3x in serum-free medium. The cells were then subjected to the inhibitors as described above and thereafter exposed to a 5 min pulse of 5 µg/ml Trf. To remove externally bound fluorescently labelled Trf the cells were thereafter washed (3x/2 min) in ice-cold acidic buffer (0.1 M Glycine-HCl buffer pH 2.5 with 150 mM NaCl)[35] whilst kept on ice. […]

Series [3] has as its system SH-SY5Y cells. The experiment in a line: Cell viability by flow cytometry FSC/SSC live/dead gating. The format is cell-based. Particulars: for fraction of inhibitor-treated cells in the live gate: 90 min exposure at the concentrations used (10 µM cytochalasin A, 25 µg/ml cytochalasin D, 10 µM IPA-3, 25 nM wortmannin, 5 µg/ml CPZ, 80 µM dynasore), FSC/SSC gating. How it is done:
Flow cytometry was used to quantify cellular uptake. […] For experiments including Trf B-27 was omitted, as outlined above. […] All samples were kept on ice until they were analysed on a Guava EasyCyte 8HT (Millipore, Darmstadt, Germany) that automatically retrieves samples from a 96-well plate. In order to exclude effects due to difference in delay time we used mixed order of analysis, loading only a few samples at a time with the remaining samples kept on ice. The cell counting gate was determined using propidium iodide (0.5 µM, not washed away prior to analysis) and calcein-AM (10 nM, 15 min staining) to distinguish live and dead cells, and for each sample 5,000 cells from within the live gate were counted and analysed. […] Compensation was performed to adjust for bleed through in experiments including mRFP. Mean cellular uptake was estimated as the average fluorescence intensity of all cells gated within the live region and all individual experiments were performed with three technical replicates (n = 3) unless else is stated. The average fluorescence intensity was baseline corrected by subtracting the signal for unstained cells.
(1 picture or pasted object on this page, not shown here)
On the technique in general: A flow cytometer gives signals particle by particle.

The test system of series [4] is SH-SY5Y cells transfected with AP180-C. Briefly: Uptake in cells overexpressing AP180-C. The format is cell-based, human. The following applies: SH-SY5Y 24 h post transfection; HF488-labelled Aβ 1 µM 1 h or AF647-Trf 5 µg/ml 5 min; low and high mRFP gates; N = 2, n = 2–4. How it is done:
as §1, with “cells. […]” for “cells.”

Series [5] relates to SH-SY5Y cells transfected with dyn2 K44A. Briefly: Uptake in cells transfected with dominant negative dynamin2 K44A. The format is cell-based, human. Particulars: SH-SY5Y 24 h post transfection; HF647-labelled Aβ 1 µM 1 h or AF647-Trf 5 µg/ml 5 min; gated low/medium/high EGFP; N = 2, n = 3–5. How it is done:
as §1, with “In order to exclude effects due to difference in delay time we used mixed order of analysis, loading only a few samples at a time with the remaining samples kept on ice.” left out, “HF647 and AlexaFluor647 were excited with a 635 nm laser and detected through a 661/19 nm filter. Compensation was performed to adjust for bleed through in experiments including mRFP. Mean cellular uptake was estimated as the average fluorescence intensity of all cells gated within the live region and all individual experiments were performed with three technical replicates (n = 3) unless else is stated. The average fluorescence intensity was baseline corrected by subtracting the signal for unstained cells.” left out

The text below walks through data of paper PMC5435687 (Scientific Reports, 2017).

“Also recorded” adds a separate entry of the source. Structures can show the parent of a compound that is named as a salt.

Broadly, the inhibition is the change of the read-out against control, counted positive when it falls. Low values mean little suppression, high ones strong suppression.

For `CN(C)CCCN1c2ccccc2Sc2ccc(Cl)cc21` [CPZ, chlorpromazine hydrochloride], in series [1], the stability in solution entry is “rapidly degraded in aqueous solutions; also recorded: rapid degradation in solution”. Also, the inhibition at 5 µg/mL in the series on SH-SY5Y cells [2] (Homo sapiens, 5 µg/ml CPZ, Trf 5 µg/ml 5 min pulse at end of 1 h Aβ incubation, n = 3) is roughly 30%.

Consider `CCN(c1nc(N)c(C(=O)NC(=N)N)nc1Cl)C(C)C` [EIPA], for which, in the series on SH-SY5Y cells [2] (25–200 µM), the “specificity as macropinocytosis inhibitor” value is “unspecific in SH-SY5Y cells regardless of the concentration used”.

As to `Oc1ccc2ccccc2c1SSc1c(O)ccc2ccccc12` [IPA-3, 1,1′-Disulfanediyldinaphthalen-2-ol], in the series with SH-SY5Y cells [3], the “fraction of inhibitor-treated cells in the live gate” value (shortened to “fraction of inhibitor-treated cells”) is given as “at least 90%”. In the series with SH-SY5Y cells [2] (n = 3), the “effect of inhibitor on Trf uptake” value is “identical to that in the control”.

In the case of `C=C1[C@@H](C)[C@H]2[C@H](Cc3ccccc3)NC(=O)[C@]23OC(=O)/C=C/C(=O)CCC[C@@H](C)C/C=C/[C@H]3[C@@H]1O` [cytochalasin A], the “fraction of inhibitor-treated cells” value with SH-SY5Y cells [3] is greater than 85%. Besides, in the series with SH-SY5Y cells [2] (n = 3), the “effect of inhibitor on Trf uptake” value is on record as “reduced the uptake of Trf”.

Regarding `C=C1[C@@H](C)[C@H]2[C@H](Cc3ccccc3)NC(=O)[C@]23[C@H](OC(C)=O)/C=C/[C@@](C)(O)C(=O)[C@@H](C)C/C=C/[C@H]3[C@@H]1O` [cytochalasin D], in the series with SH-SY5Y cells [3], the “fraction of inhibitor-treated cells” value is greater than 85%. Moreover, the “effect of inhibitor on Trf uptake” value in the series on SH-SY5Y cells [2] (n = 3) is “reduced the uptake of Trf”.

In the case of `O=C(N/N=C/c1ccc(O)c(O)c1)c1cc2ccccc2cc1O` [dynasore], in the series with SH-SY5Y cells [2] (Homo sapiens, 5 min, 80 µM dynasore, 5 µg/ml AF647-Trf 5 min pulse, range over 4 independent experiments), the inhibition at 80 µM lay within 30 to 65%.

For `COC[C@H]1OC(=O)c2coc3c2[C@@]1(C)C1=C(C3=O)[C@@H]2CCC(=O)[C@@]2(C)C[C@H]1OC(C)=O` [wortmannin], the “fraction of inhibitor-treated cells” value in the series on SH-SY5Y cells [3] is “at least 90%”. The “effect of inhibitor on Trf uptake” value in the series with SH-SY5Y cells [2] (n = 3) was “identical to that in the control”.

In the case of Transferrin [Trf], the “uptake in AP180-C transfected cells compared to non-transfected cells” value in series [4] was “systematically decreased with the degree of AP180-C overexpression”. In addition, the “uptake in dyn2 K44A transfected cells relative to non-transfected cells” value in series [5] is “inhibited in proportion to the degree of dyn2 K44A expression”.

As for methyl-β-cyclodextrin, in the series on SH-SY5Y cells [3], the “cytotoxicity during cholesterol depletion” value is “high levels of cytotoxicity”.
